In US9302014B2, “Cell-penetrating peptides having a central hydrophobic domain” (Medical Research Council, priority 2011, dated 2016):
Non-standard residues stand in square brackets, D forms with d. No end group written: not given here. Ahx = NCCCCCC(=O)O; βAla = NCCC(=O)O

Tests used:
[1] = test system: dystrophin exon 23; assay: Exon skipping in differentiated mouse H2K mdx myotubes (nested RT-PCR, densitometry); format: cell-based; settings: Example 5, conjugate 0.125 to 2.0 μM, no transfection agent
Protocol: The exon skipping potential of Pip6-PMO conjugates was evaluated in differentiated mouse H2K mdx myotubes in the absence of any transfection agent (FIG. 1) at concentrations ranging from 0.125 μM to 1 μM. […] In the case of Pip6 sequences, the flanking arginine-rich sequences are identical (with the exception of Pip6e, which is identical except for one arginine immediately preceding the core which is displaced into the second position of the core). […] Note that we have previously shown that major changes in in vitro exon skipping activities are correlated instead with the total numbers of arginine residues [Saleh, A. F., et al., Synthesis and splice-redirecting activity of branched, arginine-rich peptide dendrimer conjugates of peptide nucleic acid oligonucleotides. Bioconjug Chem, 2010. 21(10): p. 1902-11.].
H2K mdx myotubes are derived from H2K mdx myoblasts obtained from the EDL muscle of a male H2K mdx f2 mouse. The cells are dystrophin deficient and conditionally immortal due to thermolabile simian virus 40 large tumor antigen (tsA58) expression. The myoblasts proliferate at 33° C. (10% CO2) in rich culture and differentiate into myotubes at 37° C. in media with horse serum.
H2K mdx myotubes were prepared and incubated with peptide-PNA and peptide-PMO conjugates in the absence of any transfection agent by the methods described previously (Wang, Q, Yin, H, et aL (2010) In vitro evaluation of novel antisense oligonucleotides is predictive of in vivo exon skipping activity for Duchenne muscular dystrophy) but with minor variations.
Myotubes were obtained from confluent H2K mdx cells seeded in gelatine coated 24-well plates following 2 days of serum deprivation (DMEM with 5% horse serum). The conjugates were incubated with myotubes for 4 h in 0.5 mL OptiMEM and then replaced by 1 mL of DMEM/5% horse serum media for further incubation. After 20 h myotubes were washed twice with PBS and total RNA was extracted with 0.5 mL of TRI Reagent (Sigma, UK). RNA preparations were treated with RNAse free DNAse (2U) and Proteinase K ([…]) prior to RT-PCR analysis. RT-PCR was carried out in 25 μL with 1 μg RNA template using SuperScript III One-Step RTPCR System with Platinum Taq DNA polymerase (Invitrogen) primed by forward primer 5′CAG AAT TCT GCC AAT TGC TGAG3′ [SEQ ID NO:312] and reverse primer 5′TTC TTC AGC TTG TGT CAT CC3′ [SEQ ID NO:313]. The initial cDNA synthesis was performed at 55° C. for 30 min followed by 30 cycles of 95° C. for 30 sec, 55° C. for 1 min and 68° C. for 80 sec. RT PCR product ([…]) was then used as the template for secondary PCR performed in 25 μL with 0.5 U Super TAQ polymerase (HT Biotechnologies) and primed by forward primer 5′CCCAGTCTACCACCCTATCAG AGC3′ [SEQ ID NO:314] and reverse primer 5′CCT GCC TTT AAG GCT TCC TT3′ [SEQ ID NO:315]. The cycling conditions were 95° C. for 1 min, 57° C. for 1 min and 72° C. for 80 sec for 25 cycles. Products were examined by 2% agarose gel and after scanning using Gene Tools Analysis Software (SynGene) the relative amount of exon 23 skipping was expressed as a percentage at a given concentration of conjugates averaged over duplicates of three experiments.
H2K mdx myotubes were prepared and incubated with peptide-PMO conjugates in the absence of any transfection agent at concentrations of 0.125, 0.25, 0.5 and 1.0 μM by the method described previously [Yin, H., et al., Pip5 transduction peptides direct high efficiency oligonucleotide-mediated dystrophin exon skipping in heart and phenotypic correction in mdx mice. Mol Ther, 2011. 19(7): p. 1295-303.]. The products of nested RT-PCR from total isolated RNA were examined by electrophoresis on a 2% agarose gel. Quantification of Δ23 transcript levels was calculated using densitometry. […]

[2] = test system: dystrophin; assay: In vivo exon skipping and dystrophin production in mdx mice (combined RNA and protein read-outs); settings: lead PPMO comparison; TA, quadriceps, diaphragm and heart; 8 week old mdx mice, 12.5 mg/kg IV, 2 weeks
Excerpt: Given the potency of Pip5e-PMO in heart tissue, the aim of altering the sequence of the hydrophobic core (whilst maintaining the 5-aa length) was to identify peptides that might be more efficient at lower doses. These modifications included inversion of the hydrophobic region (Pip6a), substitution of tyrosine by isoleucine (Pip6b), substitution of glutamine in the Pip6a sequence by displacement of the arginine immediately flanking the core in the first arginine-rich flanking region (Pip6e), and a scrambled hydrophobic core sequence (Pip6f). All Pip6 peptide-PMO conjugates were administered to mdx mice as single 12.5 mg/kg intravenous injections via the tail vein and tissues were harvested 2 weeks later and assessed for activity at both RNA and protein levels. […]
Immunohistochemical staining (data not shown) was used to visualise the production of dystrophin protein (and its correct re-location at the sarcolemma) and RT-PCR was used to detect exon-skipped products in treated mdx muscle groups. qPCR allows for the quantification of the spliced product and Western blots were used to quantify the amount of dystrophin protein produced in muscles from treated mdx mice as compared with C57BL10 and untreated mdx controls. […]

Pip9d2: Pip9 series peptide (SEQ ID Nos 320-328) conjugated to PMODMD (R[Ahx]RR[βAla]RFQILY[βAla]R[Ahx]R[βAla]; also: conjugated to PMO (PMODMD))
exon skipping activity (Δ23 skipping) in mdx muscle cells [1]: high exon skipping activity | levels of exon-skipped dystrophin RNA and protein [2]: negligible dystrophin production
